# Laboratory results: article PMC10657444, “Design and evaluation of tadpole-like conformational antimicrobial peptides” (Communications Biology, 2023)
# Where “and” joins values, the source holds several entries; their conditions need not be identical. Equal values may be shown once. Non-standard residues stand in square brackets, D forms with d. Residues, ends and D or L forms follow the SMILES beside them.
# Legend:
# MRSA USA 300 [1] = experiment: Transmission electron microscopy; format: cell-based, Staphylococcus aureus; settings: 2 × MIC, 60 min
# Procedure: The processing method of the samples for transmission electron microscopy (TEM) was the same as the treatment for SEM. The samples were then prefixed with 2.5% glutaraldehyde at 4°C overnight, post-fixed with osmium tetroxide for 70 min, and washed twice with PBS (pH 7.4). Subsequently, the samples were dehydrated for 10 min in a graded ethanol series (30, 50, 70, 90, and 100%) followed by 10 min in a mixture of absolute ethanol and acetone (1:1, v/v) and 10 min in absolute acetone. The specimens were transferred to a mixture of absolute acetone and epoxy resin (1:1, v/v) for 30 min and then to pure epoxy resin overnight at a constant temperature. Finally, the samples were sectioned using an ultramicrotome, stained with uranyl acetate and lead citrate, and then observed by TEM (Hitachi H-7650, Japan).
# MRSA USA 300 [2] = experiment: Time-kill assay; format: cell-based, Staphylococcus aureus
# Procedure: (§1) Time-kill assays were done in tubes (in 1.5 mL of LB) and antibiotics at the 1 ×, 2 ×, 4 × and 8 × MIC. Tubes were inoculated (5 × 10^6 CFU/mL) with MRSA USA 300 and K. pneumoniae ATCC 700603 and incubated at 37 °C under shaking. Serial dilutions of the cultures were plated at each desired time point (0, 1, 3, 6, and 24 h), using a multichannel pipette as follows: in line 1 of a 96-well plate, 100 µL of bacterial suspension was added, while 90 µL of 0.9% sterile saline per well was added to the other lines. At selected time points, 100 µL of bacterial suspension was transferred from the time-kill assay plate to the first line. The wells were further diluted 1 in 10 (0.9% saline) for the appropriate number of dilutions and 10 μL of each dilution was spotted in duplicate onto MH agar plates, then incubated overnight at 37°C. The colonies in each spot were counted and used to calculate the number of viable CFU/mL remaining in the original culture by considering the dilution factors.
# [3] = system: K. pneumoniae ATCC 700603; experiment: Scanning electron microscopy; format: cell-based, Klebsiella pneumoniae; settings: 2 × MIC, 60 min
# Procedure: (§2) Mid-log phase bacteria (MRSA USA 300 and K. pneumoniae ATCC 700603) grown in LB broth were adjusted to a density of 5 × 10^6 CFU/mL. […] All samples were centrifuged at 8000 rpm for 5 min, washed and then resuspended in PBS. Bacterial cells were fixed with 2.5% glutaraldehyde, and then incubated at 37°C on a glass slide for 20 min. Samples were dehydrated by passing through gradient ethanol (10%, 30%, 50%, 70%, 90%, and 100%) for 5 min at each concentration. Slides were dried with an automatic critical point drying instrument (Leica EM CPD300), and a small amount of gold was sputtered onto the samples using a sputter coater system to avoid charging in the microscope. Finally, the bacteria were visualized under a field-emission scanning electron microscopy (FESEM) device (Sirion 200).
# MRSA USA 300 [4] = experiment: Scanning electron microscopy; format: cell-based, Staphylococcus aureus; settings: 2 × MIC, 60 min
# Procedure: as §2
# sheep red blood cells = experiment: Hemolysis assay
# HEK293T cells = experiment: MTT cytotoxicity assay; format: cell-based, human; settings: for percent cell viability: HEK293T
# MTT cytotoxicity assay = format: cell-based, human; settings: human
# [5] = system: K. pneumoniae ATCC 700603; experiment: Time-kill assay; format: cell-based, Klebsiella pneumoniae
# Procedure: as §1
# [6] = HEK293T cells, OD450, cytotoxicity (Fig 2a), replicates
smiles,measurement,setting,value
CC[C@@H](C)[C@@H](NC(=O)[C@@H](Cc1ccccc1)NC(=O)[C@@H](Cc1ccccc1)NC(=O)[C@@H](Cc1ccccc1)NC(=O)[C@H](N)Cc1ccccc1)C(=O)N[C@H](CCCNC(=N)N)C(=O)N[C@H](CCCNC(=N)N)C(=O)N[C@H](CC(C)C)C(=O)N[C@H](Cc1ccccc1)C(=O)N[C@H](CCCNC(=N)N)C(N)=O [RI-HT2] (H-[dF][dF][dF][dF][dI][dR][dR][dL][dF][dR]-NH2; N-terminus assumed),membrane and intracellular structure by TEM (in words),MRSA USA 300 [1],cytoplasmic membranes became blurred and separated
same,"viable count, time-kill","MRSA USA 300 [2]; 2 × MIC, 0 h",17000000 CFU/mL and 16000000 CFU/mL
same,"viable count, time-kill","MRSA USA 300 [2]; 2 × MIC, 1 h",18000 CFU/mL and 21000 CFU/mL and 20000 CFU/mL
same,"viable count, time-kill","MRSA USA 300 [2]; 2 × MIC, 6 h",15000 CFU/mL and 12000 CFU/mL and 14000 CFU/mL
same,time to complete killing,MRSA USA 300 [2]; 4 × MIC,3 h
same,"viable count, time-kill","MRSA USA 300 [2]; 4 × MIC, 0 h",17000000 CFU/mL and 16000000 CFU/mL
same,"viable count, time-kill","MRSA USA 300 [2]; 4 × MIC, 1 h",1300 CFU/mL and 1200 CFU/mL
same,"viable count, time-kill","MRSA USA 300 [2]; 4 × MIC, 3 h",0 CFU/mL
same,"viable count, time-kill","MRSA USA 300 [2]; 4 × MIC, 6 h",0 CFU/mL
same,"viable count, time-kill","MRSA USA 300 [2]; 4 × MIC, 24 h",0 CFU/mL
same,"viable count, time-kill","MRSA USA 300 [2]; 8 × MIC, 0 h",17000000 CFU/mL and 16000000 CFU/mL
same,"viable count, time-kill","MRSA USA 300 [2]; 8 × MIC, 1 h",100 CFU/mL and 200 CFU/mL
same,"viable count, time-kill","MRSA USA 300 [2]; 8 × MIC, 3 h",0 CFU/mL
same,"viable count, time-kill","MRSA USA 300 [2]; 8 × MIC, 6 h",0 CFU/mL
same,"viable count, time-kill","MRSA USA 300 [2]; 8 × MIC, 24 h",0 CFU/mL
same,"viable count, time-kill","MRSA USA 300 [2]; MIC, 0 h",17000000 CFU/mL and 16000000 CFU/mL
same,"viable count, time-kill","MRSA USA 300 [2]; MIC, 1 h",4500000 CFU/mL and 3500000 CFU/mL and 3700000 CFU/mL
same,"viable count, time-kill","MRSA USA 300 [2]; MIC, 3 h",2300 CFU/mL and 1800 CFU/mL and 2200 CFU/mL
same,"viable count, time-kill","MRSA USA 300 [2]; MIC, 6 h",230000 CFU/mL and 380000 CFU/mL and 310000 CFU/mL
same,"viable count, time-kill","MRSA USA 300 [2]; MIC, 24 h",2000000000 CFU/mL and 3400000000 CFU/mL and 3000000000 CFU/mL
same,cell surface morphology by SEM (in words),[3],"rough, shrunken, wrinkled and partially damaged"
same,cell surface morphology by SEM (in words),MRSA USA 300 [4],"rough, shrunken, wrinkled and partially damaged"
same,"OD450, hemolysis (Fig 2b), replicates",sheep red blood cells; 6.25 µM,0.01607 (2×) and 0.02078 and 0.0162 (2×) and 0.02093
same,"OD450, hemolysis (Fig 2b), replicates",sheep red blood cells; 12.5 µM,0.02038 (2×) and 0.02274 and 0.02054 (2×) and 0.02291
same,HC10 (concentration inducing 10% hemolysis),"sheep red blood cells; red cells of sheep, 1 h",> 100.0 µM
same,toxicity / cytotoxicity against HEK293T cells (in words),HEK293T cells,did not present
same,percent cell viability,HEK293T cells; 6.25 µM,88.3759
same,percent cell viability,HEK293T cells; 12.5 µM,86.6385 and 87.1349
same,IC50 at 72 h,MTT cytotoxicity assay,> 100 µM
same,"viability at 72 h, 6.25 µM","MTT cytotoxicity assay; HEK293T cells, HEK293T, 6.25 µM, read-out: OD450, cytotoxicity (Fig 2a), replicates",90.2%
same,"viability at 72 h, 12.5 µM","MTT cytotoxicity assay; HEK293T cells, HEK293T, 12.5 µM, read-out: OD450, cytotoxicity (Fig 2a), replicates",87.8%
same,"viability at 72 h, 0.39 µM",MTT cytotoxicity assay; [6],102%
same,"viability at 72 h, 0.78 µM",MTT cytotoxicity assay; [6],94.4%
same,"viability at 72 h, 1.57 µM",MTT cytotoxicity assay; [6],92.8%
same,"viability at 72 h, 3.13 µM",MTT cytotoxicity assay; [6],93%
same,"viability at 72 h, 25 µM",MTT cytotoxicity assay; [6],84.2%
same,"viability at 72 h, 50 µM",MTT cytotoxicity assay; [6],77.8%
same,"viability at 72 h, 100 µM",MTT cytotoxicity assay; [6],75.8%
same,"viable count, time-kill","[5]; 2 × MIC, 0 h",12000000 CFU/mL and 16000000 CFU/mL and 14000000 CFU/mL
same,"viable count, time-kill","[5]; 2 × MIC, 1 h",10000 CFU/mL and 17000 CFU/mL and 15000 CFU/mL
same,"viable count, time-kill","[5]; 2 × MIC, 3 h",100 CFU/mL
same,"viable count, time-kill","[5]; 2 × MIC, 6 h",220000 CFU/mL and 310000 CFU/mL and 270000 CFU/mL
same,"viable count, time-kill","[5]; 2 × MIC, 24 h",1000000000000 CFU/mL and 1300000000000 CFU/mL
same,"viable count, time-kill","[5]; 4 × MIC, 0 h",12000000 CFU/mL and 16000000 CFU/mL and 14000000 CFU/mL
same,"viable count, time-kill","[5]; 4 × MIC, 1 h",2500 CFU/mL and 3500 CFU/mL and 3000 CFU/mL
same,"viable count, time-kill","[5]; 4 × MIC, 3 h",0 CFU/mL
same,"viable count, time-kill","[5]; 4 × MIC, 6 h",24000 CFU/mL and 32000 CFU/mL and 30000 CFU/mL
same,"viable count, time-kill","[5]; 4 × MIC, 24 h",3800000 CFU/mL and 3400000 CFU/mL
same,time to complete killing,[5]; 8 × MIC,3 h
same,"viable count, time-kill","[5]; 8 × MIC, 0 h",12000000 CFU/mL and 16000000 CFU/mL and 14000000 CFU/mL
same,"viable count, time-kill","[5]; 8 × MIC, 1 h",300 CFU/mL and 500 CFU/mL
same,"viable count, time-kill","[5]; 8 × MIC, 3 h",0 CFU/mL
same,"viable count, time-kill","[5]; 8 × MIC, 6 h",0 CFU/mL
same,"viable count, time-kill","[5]; 8 × MIC, 24 h",0 CFU/mL
same,"viable count, time-kill","[5]; MIC, 0 h",12000000 CFU/mL and 16000000 CFU/mL and 14000000 CFU/mL
same,"viable count, time-kill","[5]; MIC, 1 h",270000 CFU/mL and 230000 CFU/mL and 250000 CFU/mL
same,"viable count, time-kill","[5]; MIC, 3 h",23000 CFU/mL and 16000 CFU/mL and 17000 CFU/mL
same,"viable count, time-kill","[5]; MIC, 6 h",3400000 CFU/mL and 2800000 CFU/mL and 3800000 CFU/mL
same,"viable count, time-kill","[5]; MIC, 24 h",1000000000000 CFU/mL and 1200000000000 CFU/mL and 1700000000000 CFU/mL
